The values below come from ChEMBL document CHEMBL4385663, “Discovery of novel PTHR1 antagonists: Design, synthesis, and structure activity relationships” (Bioorg Med Chem Lett, 2019).

One may read the IC50 as the concentration that inhibits the measured activity by half. For orientation: logD means the decadic logarithm of the distribution of all forms, ionised or not, between an organic phase and buffer at a given pH. A low value points to a more hydrophilic compound. The term solubility denotes the dissolved amount per volume that the medium holds. Usually half-life stands for the time in which the quantity being followed falls by half. Read a low half-life as fast loss. Broadly, the AUC(0-t) is exposure summed from dosing to a finite time, without extrapolation to infinity. What is called bioavailability is the share of a dose that reaches the circulation, judged against a reference dose that is usually intravenous. Low values mean little systemic uptake, high ones much systemic uptake. What is called clearance is a measure of how efficiently the substance is removed, as volume per time. The low end stands for a low capacity for elimination, the high end for a high capacity for elimination. Broadly, the amount remaining is what is left of the initial amount, in per cent. Read a high amount remaining as greater stability. The fraction unbound is the share of the substance not bound to proteins or other matrix. As a reminder, the Vd is a proportionality between amount in the body and measured concentration, not a real space.

The target in series [1] is T1, Parathyroid hormone/parathyroid hormone-related peptide receptor (Homo sapiens, UniProt Q03431).
T1 sequence (Q03431 whole entry): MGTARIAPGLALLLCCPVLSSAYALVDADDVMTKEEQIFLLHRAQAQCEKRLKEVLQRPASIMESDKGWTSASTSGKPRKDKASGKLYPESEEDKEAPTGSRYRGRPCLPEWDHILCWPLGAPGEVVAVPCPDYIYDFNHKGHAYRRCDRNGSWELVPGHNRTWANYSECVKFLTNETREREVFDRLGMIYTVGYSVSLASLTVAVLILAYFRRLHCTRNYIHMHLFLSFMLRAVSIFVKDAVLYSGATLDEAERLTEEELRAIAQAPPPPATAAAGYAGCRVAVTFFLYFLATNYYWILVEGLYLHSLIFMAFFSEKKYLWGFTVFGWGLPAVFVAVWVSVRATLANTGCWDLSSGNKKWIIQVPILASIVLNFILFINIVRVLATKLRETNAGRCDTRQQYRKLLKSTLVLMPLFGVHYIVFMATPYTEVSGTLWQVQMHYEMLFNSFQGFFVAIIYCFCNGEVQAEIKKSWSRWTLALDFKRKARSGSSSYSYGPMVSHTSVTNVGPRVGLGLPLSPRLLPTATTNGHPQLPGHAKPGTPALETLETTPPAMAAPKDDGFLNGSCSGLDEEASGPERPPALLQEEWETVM
Description: Antagonist activity at human PTHR1 expressed in CHOK1 cells co-expressing Gs/Gq assessed as reduction in human PTH (1 to 34 residues)-induced cAMP accumulation incubated for 30 mins by HTRF assay

Series [2] in a line: physchem. To be noted: 1-octanol/phosphate buffered saline, pH 7.4.
Description: Distribution coefficient, log D of the compound in 1-octanol and phosphate buffered saline at pH 7.4
Series [3] in a line: Solubility of the compound in JP1 buffer at pH 1.2. The class given is physicochemical.
The nature of series [4]: Half life in Sprague-Dawley rat at 10 mg/kg, po. The class given is ADME, organism-based. The settings on record: in vivo.
Series [5] is described as follows: Solubility of the compound in JP2 buffer at pH 6.8. The class given is physicochemical.
A short description of series [6]: AUClast in Sprague-Dawley rat at 10 mg/kg, po. The arrangement: dose 10 mg/kg, time 0 - last, route oral. The settings on record: in vivo. The class given is ADME, organism-based.
A short description of series [7]: Oral bioavailability in Sprague-Dawley rat at 10 mg/kg. The class given is ADME, organism-based. The settings on record: in vivo.
A short description of series [8]: Clearance in Sprague-Dawley rat at 1 mg/kg, iv. The class given is ADME, organism-based. The settings on record: in vivo.
The nature of series [9]: in vitro. The settings on record: rat, liver microsomes. On the technique in general: Liver microsomes are vesicles of endoplasmic reticulum, rich in cytochrome P450 enzymes.
Description: Metabolic stability in rat liver microsomes assessed as parent compound remaining after 0.5 hrs
Series [10] can be described thus: Protein binding in rat plasma assessed as unbound fraction. The class given is ADME, cell-free.
Series [11] is described as follows: Volume of distribution in Sprague-Dawley rat at 1 mg/kg, iv. The class given is ADME, organism-based. To be noted: in vivo.

Values after ≈ are worked out from the molar mass of the structure shown.

In series [1], `CC1(C)N=C(C2CCCCC2)c2ccc(C#N)cc2N(c2ccc(CCCN)cc2)C1=O` displayed a 50% inhibitory concentration (IC50) of 7.6 µM.
On the same count and under the same terms, the figure for `COc1ccc2c(c1)N(c1ccc(NCCN)cc1)C(=O)C(C)(C)N=C2C1CCCCC1` is 14 µM; for `CC1(C)N=C(c2ccccc2)c2ccc(Cl)cc2N(c2ccc(NCCN)cc2)C1=O` it is 45 µM.
Regarding `CC(C)CC1=NC(C)(C)C(=O)N(c2ccc(NCCN)cc2)c2cc(Cl)ccc21`, in [1], inhibition was half-maximal at 23 µM (IC50).
Compound `NCCNc1ccc(N2C(=O)CN(C3CCCCC3)Cc3ccc(Cl)cc32)cc1` had a pH-dependent lipophilicity (logD) in series [2] of 1.4. Besides, the half-inhibitory concentration (IC50) in series [1] was > 100 µM.
With `CC1(C)N=C(C2CCCCC2)c2ccc(C#N)cc2N(c2ccc(NCCCN)cc2)C1=O`, the half-inhibitory concentration (IC50) in [1] was found to be 4.1 µM.
Same read-out and setting: the figure for `CC1(C)N=C(C2CCCCC2)c2ccc(C#N)cc2N(c2ccc(NCCNC3CCCCC3)cc2)C1=O` is 2.3 µM; for `NCCNc1ccc(N2C(=O)CN(C3CCCCC3)C(=O)c3ccc(Cl)cc32)cc1` it is > 100 µM; for `Cc1ccc2c(c1)N(c1ccc(NCCN)cc1)C(=O)C(C)(C)N=C2C1CCCCC1` it is 6.1 µM.
Regarding `CC1(C)N=C(C2CCCCC2)c2ccc(C#N)cc2N(c2ccc(NCCNC3CCOCC3)cc2)C1=O`, the values for the solubility in series [3] and in series [5] were 760 µg/mL (≈ 1480 µM) and 500 µg/mL (≈ 973 µM), respectively. Further, in [4], the half-life was 4.23 h. Also, the logD in [2] was determined as 2.9. For the same compound, the AUC(0-t) in [6] was determined as 1940 ng·h/mL. For the same compound, in series [7], the bioavailability came out at 27%. In series [8], this compound gave a clearance of 46.8 mL/min/kg. The fraction remaining at 0.5 h in series [9] is 28%. In [1], this compound yielded an IC50 of 0.09 µM. Moreover, in [10], the free fraction (fraction unbound) amounted to 0.029. In addition, in [11], the distribution volume (Vd) stood at 4.7 L/kg.
With `CN(C)C1N=C(C2CCCCC2)c2ccc(Cl)cc2N(c2ccc(NCCN)cc2)C1=O` (stereo not drawn), the half-inhibitory concentration (IC50) in [1] came to 44 µM.
`CC(C)N1N=C(C2CCCCC2)c2ccc(Cl)cc2N(c2ccc(CC3=NCCN3)cc2)C1=O` gave a log distribution coefficient (logD) in [2] of 4.2. This compound showed an IC50 in series [1] of 9.4 µM.
On to `CC1(C)N=C(C2CCCCC2)c2ccc(C#N)cc2N(c2ccc(OCCN)cc2)C1=O`, for which the IC50 in series [1] amounted to 4 µM.
Still for that read-out and setting: the figure for `CC(C)C1N=C(C2CCCCC2)c2ccc(Cl)cc2N(c2ccc(NCCN)cc2)C1=O` (stereo not drawn) is 14 µM.
As for `NCCNc1ccc(N2C(=O)CN=C(C3CCCCC3)c3ccc(Cl)cc32)cc1`, the logD in series [2] came out at 1.7. Further, inhibition in series [1] was half-maximal at 38 µM (IC50).
With `CC(C)C1(C)N=C(C2CCCCC2)c2ccc(Cl)cc2N(c2ccc(NCCN)cc2)C1=O` (stereo not drawn), in series [1], the IC50 was found to be 6.8 µM.
Compound `CC1(C2=NC(C)(C)C(=O)N(c3ccc(NCCN)cc3)c3cc(Cl)ccc32)CCCCC1` returned an IC50 in [1] of 16 µM.
For `CC1(C)N=C(C2CCCCC2)c2ccc(C#N)cc2N(c2ccc(NCCNC3CCN(S(C)(=O)=O)CC3)cc2)C1=O`, the IC50 in [1] came out at 0.18 µM.
With `CC1(C)N=C(C2CCCCC2)c2ccc(C#N)cc2N(c2ccc(NCCN)cc2)C1=O`, the log distribution coefficient (logD) in series [2] was 2.1. In [1], the half-inhibitory concentration (IC50) is 0.73 µM.
